Like-named read-outs stand apart in the source and are kept apart here.
Tests used:
[1] = tested on: Endo Lys-C-treated rPgCHT1; experiment: Kinetics of Endo Lys-C-treated rPgCHT1-NT1 on 4-MU substrates (Lineweaver-Burk plot); conditions: pH 6.0
rPgCHT1 = rPgCHT1 (Plasmodium gallinaceum, UniProt Q9NJX9); experiment: biochemical
[2] = target: peak 2 of chitinase activity (PgCHT2) (Plasmodium gallinaceum, UniProt A0A1J1H1G1); assay type: biochemical
[3] = target: peak 1 of chitinase activity (native PgCHT1) (Plasmodium gallinaceum, UniProt Q9NJX9); assay type: biochemical
peak 1 of chitinase activity (native PgCHT1), sequence (Q9NJX9 entry or part of it): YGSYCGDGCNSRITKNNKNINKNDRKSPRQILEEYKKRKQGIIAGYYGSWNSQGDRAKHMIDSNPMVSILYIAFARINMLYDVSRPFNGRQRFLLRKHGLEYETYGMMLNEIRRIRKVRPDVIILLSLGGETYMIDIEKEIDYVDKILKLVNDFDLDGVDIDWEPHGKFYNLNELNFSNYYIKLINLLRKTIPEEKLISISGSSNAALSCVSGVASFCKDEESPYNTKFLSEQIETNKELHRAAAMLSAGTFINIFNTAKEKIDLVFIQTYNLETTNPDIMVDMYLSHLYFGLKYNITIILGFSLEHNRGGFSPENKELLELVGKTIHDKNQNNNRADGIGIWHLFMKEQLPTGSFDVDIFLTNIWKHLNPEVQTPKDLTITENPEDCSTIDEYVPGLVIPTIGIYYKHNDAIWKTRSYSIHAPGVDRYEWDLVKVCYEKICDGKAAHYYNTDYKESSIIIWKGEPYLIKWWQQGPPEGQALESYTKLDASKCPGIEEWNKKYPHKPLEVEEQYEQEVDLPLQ

peak 2 of chitinase activity (PgCHT2), sequence (A0A1J1H1G1 entry or part of it): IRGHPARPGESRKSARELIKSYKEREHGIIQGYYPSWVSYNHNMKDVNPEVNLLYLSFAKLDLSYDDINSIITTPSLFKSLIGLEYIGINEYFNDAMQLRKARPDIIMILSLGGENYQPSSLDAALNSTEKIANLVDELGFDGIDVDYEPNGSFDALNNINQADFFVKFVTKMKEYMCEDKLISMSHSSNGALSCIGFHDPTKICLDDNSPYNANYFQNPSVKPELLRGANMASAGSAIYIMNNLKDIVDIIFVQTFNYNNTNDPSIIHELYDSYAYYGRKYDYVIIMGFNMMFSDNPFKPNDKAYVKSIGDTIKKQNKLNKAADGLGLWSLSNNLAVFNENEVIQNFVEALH
rPgCHT1, sequence (Q9NJX9 entry or part of it): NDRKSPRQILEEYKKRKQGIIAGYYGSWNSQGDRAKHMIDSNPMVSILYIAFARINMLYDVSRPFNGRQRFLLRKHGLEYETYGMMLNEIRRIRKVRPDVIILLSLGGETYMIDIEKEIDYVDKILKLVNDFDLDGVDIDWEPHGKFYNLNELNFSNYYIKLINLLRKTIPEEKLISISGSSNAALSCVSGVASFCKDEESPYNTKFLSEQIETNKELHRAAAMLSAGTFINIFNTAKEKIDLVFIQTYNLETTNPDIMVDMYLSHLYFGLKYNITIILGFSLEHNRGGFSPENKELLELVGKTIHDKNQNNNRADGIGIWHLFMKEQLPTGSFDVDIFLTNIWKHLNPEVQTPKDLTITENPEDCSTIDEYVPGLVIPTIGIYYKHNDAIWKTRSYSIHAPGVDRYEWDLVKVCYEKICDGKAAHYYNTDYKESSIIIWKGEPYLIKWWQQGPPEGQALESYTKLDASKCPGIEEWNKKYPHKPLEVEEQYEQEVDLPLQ

Row | IC50 (rPgCHT1) [µM] | IC50 ([2]; read-out: IC50 of PgCHT2) [µM] | IC50 ([2]; read-out: IC50 value for peak 2) [µM] | IC50 [3] [µM] | SMILES | Km [1] [µM]
1 | – | – | – | – | CC(=O)N[C@H]1[C@H](Oc2ccc3c(C)cc(=O)oc3c2)O[C@H](CO)[C@@H](O[C@@H]2O[C@H](CO)[C@@H](O[C@@H]3O[C@H](CO)[C@@H](O)[C@H](O)[C@H]3NC(C)=O)[C@H](O)[C@H]2NC(C)=O)[C@@H]1O [4-MU GlcNAc3, 4-methylumbelliferyl-N,N′,N″-β-D-triacetylchitotrioside] | 140
2 | 12 | 0.3 | 0.3 | 7 | CC(=O)N[C@H]1[C@H](O[C@H]2[C@@H](O)[C@@H](NC(C)=O)[C@H](O[C@H]3[C@H](O)[C@H]4N=C(N(C)C)O[C@H]4[C@@H]3CO)O[C@@H]2CO)O[C@H](CO)[C@@H](O)[C@H]1O [allosamidin] | –

— patent publication US6815183B1, “Plasmodium sp. chitinase” (The Board of Regents of the University of Texas System, priority 1999, dated 2004)
